Tests used:
[1] = in vivo
[2] = in vivo; remark: listed apart in the source
[3] = tested on: Bladder
[4] = tested on: Hen; details: in vivo
[5] = tested on: Ames
[6] = in vivo; details: po
[7] = in vivo; details: topical or ocular
[8] = in vivo; details: chicken
[9] = tested on: Mouse; test: Genotoxicity: mouse micronucleus; details: in vivo
[10] = sample as named; W samples fresh

In the case of `CC(C)COP(=O)(OCC(C)C)OCC(C)C` [TIBP, triisobutyl phosphate], the “Eye Irritation” value [1] was “Practically non-irritating”, the “Skin Irritation” value [2] was “Moderately irritating” and the “Subchronic Bladder Hyperplasia, level in rats” value [3] was greater than 5000 ppm. The “NOEL, subchronic bladder hyperplasia” value ([3]; rats) was 5000 ppm, the “Subchronic Bladder Hyperplasia, observation” value ([3]; rats) was “None observed” and the “Hen Neurotox” value [4] was “Not neurotoxic”. For the same molecule, the Ames [5] was “negative”, the LD50 [6] was greater than 5000 mg/kg and the LD50 [7] was greater than 5000 mg/kg. For the same molecule, the LD50 [8] was greater than 5000 mg/kg and the Mouse micronucleus [9] was “negative”.

With `CCCCOP(=O)(OCCCC)Oc1ccccc1` [DBPP, dibutyl phenyl phosphate] the “Independent Lab Cond.” value [10] was 0.008 μMHO/cm.
